Experimental findings from patent publication US20220002272A1, “BISARYL LACTAMS AS NRF2 ACTIVATORS” (GLAXOSMITHKLINE INTELLECTUAL PROPERTY DEVELOPMENT LIMITED, priority 2016, published 2022) are described below.

Structures can show the parent of a compound that is named as a salt. A value given as a limit tells only on which side of the number the result lay.

The subject of the assay is NQ01 specific enzyme activity in BEAS-2B cells (marker for Nrf2 activation). The assay is described as follows: BEAS-2B NQ01 MTT Assay. The assay is classed as cell-based. As to conditions: Homo sapiens; NQ01 specific activity induction in BEAS-2B cells, 48 hours incubation with compound. From the text:
NAD(P)H:quinone oxidoreductase 1 (NQ01), also called DT diaphorase, is a homodimeric FAD-containing enzyme that catalyzes obligatory NAD(P)H-dependent two-electron reductions of quinones and protects cells against the toxic and neoplastic effects of free radicals and reactive oxygen species arising from one-electron reductions. The transcription of NQ01 is finely regulated by Nrf2, and thus NQ01 activity is a good marker for Nrf2 activation. On day one, frozen BEAS-2B cells (ATCC) are thawed in a water bath, counted, and re-suspended at a concentration of 250,000 cells/mL. Fifty microliters of cells are plated in 384 well black clear-bottomed plates. Plates are incubated at 37° C., 5% CO2 overnight. On day two, plates are centrifuged and 50 nL of compound or controls are added to the cells. Plates are then incubated at 37° C., 5% CO2 for 48 hours. On day four, medium is aspirated from the plate and crude cell lysates are made by adding 13 uL of 1× Cell Signaling Technologies lysis buffer with 1 Complete, Mini, EDTA-free Protease Inhibitor Tablet (Roche) for each 10 mL of lysis buffer. After lysis plates are incubated for 20 minutes at room temperature. Two microliters of lysate are removed for use in Cell Titer Glo assay (Promega) and MTT cocktail is prepared (Prochaska et. al. 1998) for measurement of NQ01 activity. Fifty microliters of MTT cocktail is added to each well, plate is centrifuged, and analyzed on an Envision plate reader (Perkin Elmer) using Absorbance 570 nm label for 30 minutes. Product formation is measured kinetically and the pEC50 of NQ01 specific activity induction is calculated by plotting the change in absorbance (Delta OD/min) versus the log of compound concentration followed by 3-parameter fitting.
pEC50 is the negative log of the EC50.
EC50s<1 nM (+++++), EC50s 10 nM-1 nM (++++), EC50s 10-100 nM (+++), EC50s 100 nM-1 μM (++), EC50s 1-10 μM (+).
In the case of `Cc1c([C@H](c2ccc3c(c2)[C@H](N2CC(=O)N(C)CC(C)(C)C2)CC3)C(C)(C)C(=O)O)ccc2c1nnn2C` (relative stereo) [Example 10, rel-3S-(1,4-Dimethyl-1H-benzo[d][1,2,3]triazol-5-yl)-2,2-dimethyl-3-(rel-(R)-3-(4,6,6-trimethyl-3-oxo-1,4-diazepan-1-yl)-2,3-dihydro-1H-inden-5-yl)propanoic acid], the EC50 was < 1 nM.

`Cc1c([C@H](c2ccc3c(c2)[C@@H](N2CC(=O)N(C)CC(C)(C)C2)CC3)C(C)(C)C(=O)O)ccc2c1nnn2C` (relative stereo) [Example 11, rel-3S-(1,4-Dimethyl-1H-benzo[d][1,2,3]triazol-5-yl)-2,2-dimethyl-3-(rel-(S)-3-(4,6,6-trimethyl-3-oxo-1,4-diazepan-1-yl)-2,3-dihydro-1H-inden-5-yl)propanoic acid]: the EC50 fell in the range of 1 to 10 nM.

`Cc1c(C(c2ccc3c(c2)C(N2CC(=O)N(C)CC(C)(C)C2)CC3)C(C)(C)C(=O)O)ccc2c1nnn2C` (single isomer, unassigned) [Example 12]: the EC50 fell in the range of 10 to 100 nM.

Turning to `Cc1ccc([C@@H](c2ccc3c(nnn3C)c2C)C(C)(C)C(=O)O)cc1CN1CC(=O)N(C2CC2)CC(C)(C)C1` [Example 1], the EC50 was in the range of 1 to 10 nM.

For the compound `CCCN1CC(C)(C)CN(Cc2cc([C@@H](c3ccc4c(nnn4C)c3C)C(C)(C)C(=O)O)ccc2C)CC1=O` [Example 2], the EC50 lay in the range of 1 to 10 nM.

As for `Cc1ccc([C@@H](c2ccc3c(nnn3C)c2C)C(C)(C)C(=O)O)cc1CN1CCCN(C)C(=O)C1` [Example 3, (S)-3-(1,4-Dimethyl-1H-benzo[d][1,2,3]triazol-5-yl)-2,2-dimethyl-3-(4-methyl-3-((4-methyl-3-oxo-1,4-diazepan-1-yl)methyl)phenyl)propanoic acid], the EC50 lay in the range of 100 to 1000 nM.

For the compound `CCN1CC(C)(C)CN(Cc2cc([C@@H](c3ccc4c(nnn4C)c3C)C(C)(C)C(=O)O)ccc2C)CC1=O` [Example 4], the EC50 lay within 1 to 10 nM.

Consider `CCC1CN(Cc2cc(C(c3ccc4c(nnn4C)c3C)C(C)(C)C(=O)O)ccc2C)CC(=O)N(C)C1` (stereo not shown) [Example 5, 3-(1,4-Dimethyl-1H-benzo[d][1,2,3]triazol-5-yl)-3-(3-((6-ethyl-4-methyl-3-oxo-1,4-diazepan-1-yl)methyl)-4-methylphenyl)-2,2-dimethylpropanoic acid], for which the EC50 lay in the range of 1 to 10 nM.

As for `Cc1ccc([C@@H](c2ccc3c(nnn3C)c2C)C(C)(C)C(=O)O)cc1CN1CC(=O)N(C)CC(C)(C)C1` [Example 6, (S)-3-(1,4-Dimethyl-1H-benzo[d][1,2,3]triazol-5-yl)-2,2-dimethyl-3-(4-methyl-3-((4,6,6-trimethyl-3-oxo-1,4-diazepan-1-yl)methyl)phenyl)propanoic acid, 0.3Formic acid salt], the EC50 was in the range of 1 to 10 nM.

Turning to `Cc1ccc(C(c2ccc3c(nnn3C)c2C)C(C)(C)C(=O)O)cc1CN1CC(=O)N(C)CC(C)(C)C1` (stereo not shown) [Example 7, 3-(1,4-Dimethyl-1H-benzo[d][1,2,3]triazol-5-yl)-2,2-dimethyl-3-(4-methyl-3-((4,6,6-trimethyl-3-oxo-1,4-diazepan-1-yl)methyl)phenyl)propanoic acid], the EC50 fell in the range of 1 to 10 nM.

For `Cc1ccc(C(c2ccc3c(nnn3C)c2C)C(C)(C)C(=O)O)cc1CN1CC(=O)N(C2CCC2)CC(C)(C)C1` (stereo not shown) [Example 8, 3-(3-((4-Cyclobutyl-6,6-dimethyl-3-oxo-1,4-diazepan-1-yl)methyl)-4-methylphenyl)-3-(1,4-dimethyl-1H-benzo[d][1,2,3]triazol-5-yl)-2,2-dimethylpropanoic acid], the EC50 lay within 1 to 10 nM.

Regarding `Cc1ccc(C(c2ccc3c(nnn3C)c2C)C(C)(C)C(=O)O)cc1CN1CC(=O)N(CC2CC2)CC(C)(C)C1` (stereo not shown) [Example 9, 3-(3-((4-(Cyclopropylmethyl)-6,6-dimethyl-3-oxo-1,4-diazepan-1-yl)methyl)-4-methylphenyl)-3-(1,4-dimethyl-1H-benzo[d][1,2,3]triazol-5-yl)-2,2-dimethylpropanoic acid], the EC50 was in the range of 10 to 100 nM.

As to `Cc1c(C(c2ccc3c(c2)C(N2CC(=O)N(C)CC(C)(C)C2)CC3)C(C)(C)C(=O)O)ccc2c1nnn2C` (stereo not shown) [Example 13, 3-(1,4-Dimethyl-1H-benzo[d][1,2,3]triazol-5-yl)-2,2-dimethyl-3-(3-(4,6,6-trimethyl-3-oxo-1,4-diazepan-1-yl)-2,3-dihydro-1H-inden-5-yl)propanoic acid], the EC50 lay within 100 to 1000 nM.

`CCn1cc(COC(c2ccc(C)c(CN3CC(=O)N(C)CC(C)(C)C3)c2)C(C)(C)C(=O)O)nn1` (stereo not shown) [Example 14, 3-((1-Ethyl-1H-1,2,3-triazol-4-yl)methoxy)-2,2-dimethyl-3-(4-methyl-3-((4,6,6-trimethyl-3-oxo-1,4-diazepan-1-yl)methyl)phenyl)propanoic acid]: the EC50 was in the range of 100 to 1000 nM.

Take `CCCN1CC(C)(C)CN(Cc2cc(C(CCc3cn(CC)nn3)C(C)(C)C(=O)O)ccc2Cl)CC1=O` (stereo not shown) [Example 15, 3-(4-Chloro-3-((6,6-dimethyl-3-oxo-4-propyl-1,4-diazepan-1-yl)methyl)phenyl)-5-(1-ethyl-1H-1,2,3-triazol-4-yl)-2,2-dimethylpentanoic acid]: the EC50 was in the range of 10 to 100 nM.

On to `CCn1cc(CCC(c2ccc(Cl)c(CN3CC(=O)N(C)CC(C)(C)C3)c2)C(C)(C)C(=O)O)nn1` (stereo not shown) [Example 16, 3-(4-Chloro-3-((4,6,6-trimethyl-3-oxo-1,4-diazepan-1-yl)methyl)phenyl)-5-(1-ethyl-1H-1,2,3-triazol-4-yl)-2,2-dimethylpentanoic acid], for which the EC50 was < 1 nM.
